In patent US8383094B2, “Hepatitis C virus inhibitors” (Bristol-Myers Squibb Company, priority 2008, dated 2013):
Like-named read-outs stand apart in the source and are kept apart here.

System: HCV 1b genotype
Assay: HCV Replicon assay (HCV-neo replicon cells, wild-type)
Type: cell-based
[1] = Hepatitis C virus, HCV 1b genotype replicon, range class A-D, read-out: 1b EC50 (in μM or range)
[2] = HCV 1b genotype replicon, range class A-D, read-out: 1b EC50 (in μM or range)
[3] = Hepatitis C virus, HCV 1b genotype replicon, read-out: 1b EC50 (in μM or range)

Work on O=C(Nc1ccc(C#Cc2ccc(NC(=O)[C@@H]3CCCN3C(=O)C(c3ccccc3)N3CC[C@H](O)C3)cc2)cc1)[C@@H]1CCCN1C(=O)C(c1ccccc1)N1CC[C@H](O)C1 (stereo partly drawn) [VN51, (2S,2′S)-N,N′-(1,2-ethynediyldi-4,1-phenylene)bis(1-(((3S)-3-hydroxy-1-pyrrolidinyl)(phenyl)acetyl)-2-pyrrolidinecarboxamide)] yielded an EC50 [1] of 4.57 to 99 nM.
In the case of O=C(Nc1ccc(C#Cc2ccc(NC(=O)[C@@H]3CCCN3C(=O)C(c3ccccc3)N3CC[C@@H](O)C3)cc2)cc1)[C@@H]1CCCN1C(=O)C(c1ccccc1)N1CC[C@@H](O)C1 (stereo partly drawn) [VN52, (2S,2′S)-N,N′-(1,2-ethynediyldi-4,1-phenylene)bis(1-(((3R)-3-hydroxy-1-pyrrolidinyl)(phenyl)acetyl)-2-pyrrolidinecarboxamide)], the EC50 [1] is reported as < 4.57 nM.
Work on O=C(Nc1ccc(C#Cc2ccc(NC(=O)[C@@H]3CCCN3C(=O)C(c3ccccc3)N3CC[C@@H](O)C3)cc2)cc1)[C@@H]1CCCN1C(=O)C(c1ccccc1)N1CC[C@@H](O)C1 (stereo partly drawn) [VN53, (2S,2′S)-N,N′-(1,2-ethynediyldi-4,1-phenylene)bis(1-(((3R)-3-hydroxy-1-pyrrolidinyl)(phenyl)acetyl)-2-pyrrolidinecarboxamide)] yielded an EC50 [2] of 4.57 to 99 nM.
CCOC(=O)N[C@@H](C(=O)N1CCC[C@H]1C(=O)Nc1ccc(C#Cc2ccc(NC(=O)[C@@H]3CCCN3C(=O)[C@H](NC(=O)OCC)c3ccccc3)cc2)cc1)c1ccccc1 [VN54, Diethyl (1,2-ethynediylbis(4,1-phenylenecarbamoyl(2S)-2,1-pyrrolidinediyl((1R)-2-oxo-1-phenyl-2,1-ethanediyl)))biscarbamate] showed an EC50 [3] of 0.018 nM.
COC(=O)N[C@@H](C(=O)N1CCC[C@H]1C(=O)Nc1ccc(C#Cc2ccc(NC(=O)[C@@H]3CCCN3C(=O)[C@H](NC(=O)OC)c3ccccc3)cc2)cc1)c1ccccc1 [VN55, Dimethyl (1,2-ethynediylbis(4,1-phenylenecarbamoyl(2S)-2,1-pyrrolidinediyl((1R)-2-oxo-1-phenyl-2,1-ethanediyl)))biscarbamate] was tested, and the EC50 (HCV 1b genotype replicon, read-out: 1b EC50 (in μM or range)) was 0.013 nM.
With CCCOC(=O)N[C@@H](C(=O)N1CCC[C@H]1C(=O)Nc1ccc(C#Cc2ccc(NC(=O)[C@@H]3CCCN3C(=O)[C@H](NC(=O)OCCC)c3ccccc3)cc2)cc1)c1ccccc1 [VN56, Dipropyl (1,2-ethynediylbis(4,1-phenylenecarbamoyl(2S)-2,1-pyrrolidinediyl((1R)-2-oxo-1-phenyl-2,1-ethanediyl)))biscarbamate] the EC50 [2] was < 4.57 nM.
In the case of CC(C)OC(=O)N[C@@H](C(=O)N1CCC[C@H]1C(=O)Nc1ccc(C#Cc2ccc(NC(=O)[C@@H]3CCCN3C(=O)[C@H](NC(=O)OC(C)C)c3ccccc3)cc2)cc1)c1ccccc1 [VN57, Diisopropyl (1,2-ethynediylbis(4,1-phenylenecarbamoyl(2S)-2,1-pyrrolidinediyl((1R)-2-oxo-1-phenyl-2,1-ethanediyl)))biscarbamate], the EC50 [2] is reported as < 4.57 nM.
For O=C(Nc1cccc(C#Cc2cccc(NC(=O)[C@@H]3CCCN3C(=O)OCc3ccccc3)n2)n1)[C@@H]1CCCN1C(=O)OCc1ccccc1 [YQ1, dibenzyl (2S,2′S)-2,2′-(1,2-ethynediylbis(6,2-pyridinediylcarbamoyl))di(1-pyrrolidinecarboxylate)], the EC50 [3] was 7 nM.
O=C(Nc1cncc(C#Cc2cncc(NC(=O)[C@@H]3CCCN3C(=O)Cc3ccccc3)c2)c1)[C@@H]1CCCN1C(=O)Cc1ccccc1 [YQ2, (2S,2′S)-N,N′-(1,2-ethynediyldi-5,3-pyridinediyl)bis(1-(phenylacetyl)-2-pyrrolidinecarboxamide)] gave an EC50 (Hepatitis C virus, read-out: 1b EC50 (in μM or range), HCV 1b genotype replicon) of 523000 nM.
